The subject of experiment [1] is Huh7. Description: Real-time cell electronic sensing (RT-CES) growth analysis, Huh7. The format is cell-based. Particulars: Homo sapiens, Huh-7. The protocol: (§1) The selected 3 compounds were further analyzed with real-time cell electronic sensing (RT-CES) system to assess the real-time growth behavior of the cells treated with the compounds. Huh7 and Mahlavu liver cancer cells were treated with the selected chalcones and monitored with RT-CES. Results of the compounds were normalized to data of negative control DMSO.
(§2) Figure 2 Real-time cell growth analysis. Human liver cancer cells Huh7 (left panel) and Mahlavu (right panel) were treated with the selected compounds. Cell index measurements were obtained by RT-CES software. DMSO was used as negative control. (A) The growth inhibition values of the compounds were obtained by the normalization with DMSO. Experiments were performed in triplicate. (B) IC50 values calculated from RT-CES experiment data. TEXT PRINTED IN THE PICTURE: (B) 1: Huh7 24h: 3.7; Huh7 72h: 5.2; Mahlavu 24h: 1.2; Mahlavu 72h: 2.3 | (B) 9: Huh7 24h: 16.1; Huh7 72h: 11.5; Mahlavu 24h: 4.9; Mahlavu 72h: 6.8 | (B) 11: Huh7 24h: 8.7; Huh7 72h: 8.8; Mahlavu 24h: 4.9; Mahlavu 72h: 6.8 DOUBTS OF THE COPYIST ABOUT THIS PICTURE: Panel B table: the picture prints no measure and no unit for the values
(§3) Huh7 and Mahlavu cells were inoculated into the e-plate (1000–2000 cells/well). The attachment, spreading, and proliferation of the cells were monitored every 30 minutes using the Xcelligence® Real-Time Cell Analysis system (ACEA Biosciences Inc.) in a cell culture incubator. […] When cells reach to an cell index (CI) impedance values about 1.5 usually in 24 hours cells were treated with the chalcones 1, 9 and 11. DMSO was used as a negative control. Each experiment was repeated three times. The CI value was noted every 10 minutes for the first 24 hours and then every 30 minutes upon chalcone treatments. The cell inhibition rate calculated as follows (%)=[1-(CItreatedcells/CIDMSO)]×100 .

The test system of experiment [2] is Huh7. Description: NCI-60 sulforhodamine B (SRB) cytotoxicity assay, Huh7. The format is cell-based, human. Particulars: Homo sapiens, read-out: IC50 Huh7. The protocol:
(§4) The bioactivities of the synthesized chalcones were assessed on human liver cancer cell lines and on DPSCs with NCI-SRB assay in vitro. DPSCs used to asses the bioactivity of chalcones on untransformed control cells with the potential of hepatic lineage. […] We also included 5-Fluorouracil which is used in clinics for gastrointestinal cancers and Sorafenib. All results were normalized to DMSO negative control measurements. The experiment was performed in triplicate.
(§5) Well differentiated human primary liver cancer cell lines Huh7, HepG2 and Hep3B, and poorly differentiated Mahlavu, FOCUS and SNU475 HCC cells were cultured in Dulbecco’s Modified Eagle’s Standard (DMEM) medium supplemented with 10% Fetal Bovine Serum (FBS), 100 units/mL penicillin and 100 µg/mL streptomycin (Gibco, Invitrogen, Carlsbad, CA, USA). 0.1 mM nonessential amino acids (NEAA) which are specific to HCC cell lines also added to culture media. Cells were cultured in a 5% CO2 incubator at 37^∘C
(§6) Primary liver cancer cells Huh7, HepG2, Hep3B, Mahlavu, FOCUS, Snu475 along with hepatic progenitor Dental pulp stem cells were seeded into 96-well plates (1,000–3,000 HCC cell/well and 10,000 cells DPSC/well ) for 24 h. The cells were then treated with increasing concentrations of the chalcones ( 2.5-40μM ). DMSO (AppliChem Biochemica, Darmstadt, Germany) was used as negative control. The growth has stopped at the end of 72 h by fixing cold with 10% (v/v) trichloroacetic acid (Merck, Schuchardt, Germany). Cells were then stained with 0.4% (m/v) of sulforhodamine (Sigma-Aldrich, St. Louis, USA) in 1% acetic acid solution. The absorbency values were acquired at 515 nm. All experiments were done in triplicate.

In experiment [3] the test system is dental pulp stem cells (DPSC). Description: NCI-60 sulforhodamine B (SRB) cytotoxicity assay, dental pulp stem cells. The format is cell-based, human. Particulars: Homo sapiens; SRB, 72 h, 2.5–40 μM, triplicate; untransformed control cells; read-out: IC50 DPSC. On the procedure: as §4
Dental pulp stem cells (DPSCs) were isolated from anonymised unidentified healthy intact wisdom tooth. DPSCs were isolated within few hours upon wisdom teeth surgery from patients above 18 years old. All were informed about the procedures, and their consents were obtained. Teeth were broken carefully in order to reach the dental pulp area. […] Then, the cells were seeded onto flasks in 10ml DMEM-F12 media (Lonza) supplemented with 1% penicillin/streptomycin solution (Hyclone) and 15% FBS (Fetal Bovine Serum,Hyclone, Logan, UT, USA) and cultured in a 5% CO2 incubator at 37^∘C .
as §6, with “The absorbency values were acquired at 515 nm.” left out

The next experiment relates to Hep3B. Description: NCI-60 sulforhodamine B (SRB) cytotoxicity assay, Hep3B. To be noted: Homo sapiens, Hep3B; SRB, 72 h, 2.5–40 μM, triplicate; read-out: IC50 Hep3B. The format is cell-based, human. The protocol:
as §4, §5
as §6, with “The absorbency values were acquired at 515 nm.” left out

The subject of the next experiment is SNU475. Description: NCI-60 sulforhodamine B (SRB) cytotoxicity assay, SNU475. The format is cell-based, human. To be noted: Homo sapiens, SNU-475; SRB, 72 h, 2.5–40 μM, triplicate; read-out: IC50 SNU475. The protocol:
as §4, §5
as §6, with “The absorbency values were acquired at 515 nm.” left out

For another experiment, the system named is Mahlavu. Description: Real-time cell electronic sensing (RT-CES) growth analysis, Mahlavu. The format is cell-based. Particulars: Homo sapiens. On the procedure: as §1, §2, §3
Where [4] appears, read: Huh7, 24h, read-out: IC50 values calculated from RT-CES experiment data, Huh7 24h.
Where [5] appears, read: Huh7, 72h, read-out: IC50 values calculated from RT-CES experiment data, Huh7 72h.
The mark [6] stands for this setting: Huh-7, SRB, 72 h, 2.5–40 μM, triplicate.
Setting [7] is: 24h, read-out: IC50 values calculated from RT-CES experiment data, Mahlavu 24h.
[8] abbreviates: 72h, read-out: IC50 values calculated from RT-CES experiment data, Mahlavu 72h.

Like-named read-outs stand apart in the source and are kept apart here. Where only a bound is given, the exact number is not on record here.

Consider `COc1ccc(C(=O)/C=C/c2cccc([N+](=O)[O-])c2)cc1` [compound 1], for which the half-inhibitory concentration (IC50) was 3.7 µM in the experiment on Huh7 [1] (setting [4]); 5.2 µM in the experiment on Huh7 [1] (setting [5]); under 2.5 µM with Huh7 [2] (setting [6]); over 40 µM in experiment [3]; 6.2 µM in the experiment with Hep3B; 3 µM in the experiment with SNU475. For the same molecule, the figures for the concentration for half-maximal inhibition (IC50) in the experiment with Mahlavu (setting [7]) and with Mahlavu (setting [8]) were 1.2 µM and 2.3 µM, respectively.

Take `O=C(/C=C/c1ccccc1)c1ccccc1` [compound 9]: the IC50 in the experiment with Huh7 [1] (setting [4]) was 16.1 µM; in the experiment on Huh7 [1] (setting [5]), 11.5 µM; with Huh7 [2] (Huh-7, 72 h), 5.3 µM; in experiment [3], 25.7 µM; in the experiment on Hep3B it was 7.3 µM; in the experiment on SNU475 it was 5 µM. Moreover, the IC50 in the experiment with Mahlavu (setting [7]) was 4.9 µM; in the experiment on Mahlavu (setting [8]), 6.8 µM.

With `O=C(/C=C/c1ccc(Cl)cc1)c1ccccc1` [compound 11], the half-inhibitory concentration (IC50) in the experiment with Huh7 [1] (setting [4]) is 8.7 µM; in the experiment on Huh7 [1] (setting [5]), 8.8 µM; in the experiment on Huh7 [2] (setting [6]), 4.3 µM; in experiment [3], 19.1 µM; in the experiment with Hep3B, 5.9 µM; with SNU475 it was 9 µM. Also, the half-maximal inhibitory concentration (IC50) in the experiment on Mahlavu (setting [7]) is 4.9 µM; in the experiment on Mahlavu (setting [8]) it was 6.8 µM.

The values above are taken from article PMC7367369, “A small library of chalcones induce liver cancer cell death through Akt phosphorylation inhibition” (Scientific Reports, 2020).
